Test results reported in the supplement of paper PMC11281043.
± gives the standard deviation of the averaged measurements.

Legend:
Details in all cases: exposure: 6-8 hpf to 5 dpf, scored at 6 dpf
Danio rerio embryo/larva [1] = assay: max % larvae with blood pooling across tested concentrations; higher = more toxic; extreme values may be limits of the assay
Danio rerio embryo/larva [2] = assay: max % larvae with uninflated swim bladder across tested concentrations; higher = more toxic; extreme values may be limits of the assay
Danio rerio embryo/larva [3] = assay: max % larvae with tail defects across tested concentrations; higher = more toxic; extreme values may be limits of the assay
Danio rerio embryo/larva [4] = assay: max % larvae with spinal defects across tested concentrations; higher = more toxic; extreme values may be limits of the assay
Danio rerio embryo/larva [5] = assay: max % larvae with craniofacial defects across tested concentrations; higher = more toxic; extreme values may be limits of the assay
Danio rerio embryo/larva [6] = assay: max % larvae with edema across tested concentrations; higher = more toxic; extreme values may be limits of the assay
Danio rerio embryo/larva [7] = assay: max % larvae with abnormal position across tested concentrations; higher = more toxic; extreme values may be limits of the assay
Danio rerio embryo/larva [8] = assay: max % larvae with pigmentation defects across tested concentrations; higher = more toxic
Danio rerio embryo/larva [9] = assay: max % larvae generally abnormal across tested concentrations; higher = more toxic; extreme values may be limits of the assay

Row | Structure (SMILES) | max % larvae (Danio rerio embryo/larva [1]) [%] | max % larvae (Danio rerio embryo/larva [2]) [%] | max % larvae (Danio rerio embryo/larva [3]) [%] | max % larvae (Danio rerio embryo/larva [4]) [%] | max % larvae (Danio rerio embryo/larva [5]) [%] | max % larvae (Danio rerio embryo/larva [6]) [%] | max % larvae (Danio rerio embryo/larva [7]) [%] | max % larvae (Danio rerio embryo/larva [8]) [%] | max % larvae generally abnormal across tested concentrations (Danio rerio embryo/larva [9]) [%]
1 | C=CC(=O)OCC(F)(F)C(F)(F)C(F)(F)COC(=O)C=C [1H,1H,5H,5H-Perfluoro-1,5-pentanediol diacrylate] (max tested concentration (log10 uM): 1) | 0 | 16.7 | 25 | 8.33 | 33.3 | 33.3 | 0 | 0 | 33.3
2 | OCC(F)(F)C(F)(F)C(F)(F)C(F)F [1H,1H,5H-Perfluoropentanol] (max tested concentration (log10 uM): 2) | 0 | 0 | 0 | 0 | 0 | 0 | 0 | 0 | 0
3 | C=C(C)C(=O)OCC(F)(F)C(F)(F)C(F)(F)C(F)F [1H,1H,5H-Perfluoropentyl methacrylate] (max tested concentration (log10 uM): 2) | 0 | 33.3 | 16.7 | 4.17 | 16.7 | 25 | 0 | 0 | 25
4 | OCC(F)(F)C(F)(F)C(F)(F)C(F)(F)C(F)(F)C(F)F [1H,1H,7H-Dodecafluoro-1-heptanol] (max tested concentration (log10 uM): 2) | 0 | 0 | 0 | 0 | 0 | 8.33 | 0 | 0 | 8.33
5 | OCC(F)(F)OC(F)(F)C(F)(F)OC(F)(F)CO [1H,1H,8H,8H-Perfluoro-3,6-dioxaoctane-1,8-diol] (max tested concentration (log10 uM): 2) | 0 | 0 | 0 | 0 | 0 | 0 | 0 | 0 | 0
6 | C=CC(=O)OCC(F)(F)C(F)(F)C(F)(F)C(F)(F)C(F)(F)C(F)(F)C(F)(F)C(F)F [1H,1H,9H-Perfluorononyl acrylate] (max tested concentration (log10 uM): 2) | 0 | 16.7 | 2.27 | 0 | 9.09 | 9.09 | 4.55 | 0 | 9.09
7 | OCC(F)(F)OC(F)(F)C(F)(F)OC(F)(F)C(F)(F)OC(F)(F)CO [1H,1H,11H,11H-Perfluorotetraethylene glycol] (max tested concentration (log10 uM): 1.47712) | 0 | 0 | 0 | 0 | 0 | 0 | 0 | 0 | 0
8 | NCC(F)(F)C(F)(F)C(F)(F)C(F)(F)C(F)(F)C(F)(F)C(F)(F)C(F)(F)F [1H,1H-Perfluorononylamine] (max tested concentration (log10 uM): 1.60206) | 50 | 50 | 0 | 0 | 50 | 50 | 25 | 0 | 75
9 | C=CC(=O)OCC(F)(F)C(F)(F)C(F)(F)C(F)(F)C(F)(F)C(F)(F)C(F)(F)F [1H,1H-Perfluorooctyl acrylate] (max tested concentration (log10 uM): 2) | 0 | 0 | 0 | 0 | 0 | 0 | 0 | 0 | 0
10 | NCC(F)(F)C(F)(F)C(F)(F)C(F)(F)C(F)(F)C(F)(F)C(F)(F)F [1H,1H-Perfluorooctylamine] (max tested concentration (log10 uM): 2) | 0 | 20 ± 28 | 0 | 0 | 15 ± 21 | 22.5 ± 32 | 0 | 0 | 20 ± 28
11 | FC(F)(F)C(F)(F)C(F)(F)C(F)(F)C(F)(F)C(F)(F)CCS [2-(Perfluorohexyl)ethanethiol] (max tested concentration (log10 uM): 1.60206) | 0 | 16.7 | 0 | 0 | 0 | 8.33 | 0 | 0 | 8.33
12 | C=C(C)C(=O)OCCC(F)(F)C(F)(F)C(F)(F)C(F)(F)C(F)(F)C(F)(F)F [2-(Perfluorohexyl)ethyl methacrylate] (max tested concentration (log10 uM): 2) | 0 | 0 | 0 | 0 | 0 | 0 | 0 | 0 | 0
13 | OCCC(F)(F)C(F)(F)C(F)(F)C(F)(F)C(F)(F)C(F)(F)C(F)(F)C(F)(F)F [2-(Perfluorooctyl)ethanol] (max tested concentration (log10 uM): 2) | 0 | 44.4 | 0 | 0 | 0 | 19.4 | 8.33 | 0 | 22.2
14 | FC(F)(F)C(F)(F)C(F)(F)C(F)(F)C(F)(F)C(F)(F)C(F)(F)C(F)(F)CCS [2-(Perfluorooctyl)ethanthiol] (max tested concentration (log10 uM): 1.60206) | 0 | 8.33 | 0 | 0 | 0 | 8.33 | 0 | 0 | 8.33
15 | C=CC(=O)OCCC(F)(F)C(F)(F)C(F)(F)C(F)(F)C(F)(F)C(F)(F)C(F)(F)C(F)(F)F [2-(Perfluorooctyl)ethyl acrylate] (max tested concentration (log10 uM): 2) | 0 | 0 | 0 | 0 | 0 | 0 | 0 | 0 | 0
16 | C=C(C)C(=O)OCCC(F)(F)C(F)(F)C(F)(F)C(F)(F)C(F)(F)C(F)(F)C(F)(F)C(F)(F)F [2-(Perfluorooctyl)ethyl methacrylate] (max tested concentration (log10 uM): 2) | 0 | 0 | 0 | 0 | 0 | 0 | 0 | 0 | 0
17 | FC(F)(F)C(F)(C(F)(F)F)C(F)(F)C(F)(F)CC1CO1 (stereo not given) [3-(Perfluoro-3-methylbutyl)-1,2-propenoxide] (max tested concentration (log10 uM): 1.60206) | 0 | 0 | 0 | 0 | 0 | 0 | 0 | 0 | 0
18 | O=C(O)C=CC(F)(C(F)(F)F)C(F)(F)F [3-(Perfluoroisopropyl)-2-propenoic acid] (max tested concentration (log10 uM): 2) | 16.7 | 16.7 | 8.33 | 8.33 | 16.7 | 16.7 | 8.33 | 0 | 16.7
19 | OCCCC(F)(F)C(F)(F)C(F)(F)C(F)(F)C(F)(F)C(F)(F)C(F)(F)C(F)(F)F [3-(Perfluorooctyl)propanol] (max tested concentration (log10 uM): 2) | 0 | 0 | 0 | 0 | 0 | 0 | 0 | 0 | 0
20 | OCC(F)(F)C(F)(F)C(F)(F)F [3:1 Fluorotelomer alcohol] (max tested concentration (log10 uM): 2) | 8.33 | 0 | 0 | 0 | 0 | 8.33 | 0 | 0 | 8.33
21 | O=C(O)CCC(F)(C(F)(F)F)C(F)(F)F [4,4-bis(Trifluoromethyl)-4-fluoropropanoic acid] (max tested concentration (log10 uM): 2) | 0 | 0 | 0 | 0 | 0 | 0 | 0 | 0 | 0
22 | OCCC(F)(F)C(F)(F)C(F)(F)C(F)(F)F [4:2 Fluorotelomer alcohol] (max tested concentration (log10 uM): 2) | 0 | 0 | 0 | 0 | 0 | 4.17 | 0 | 0 | 4.17
23 | O=S(=O)(O)CCC(F)(F)C(F)(F)C(F)(F)C(F)(F)F [4:2 Fluorotelomer sulfonic acid] (max tested concentration (log10 uM): 2) | 0 | 0 | 0 | 0 | 0 | 0 | 0 | 0 | 0
24 | O=C(O)C(F)(F)C(F)(F)C(F)F [4H-Perfluorobutanoic acid] (max tested concentration (log10 uM): 2) | 0 | 0 | 0 | 0 | 0 | 0 | 0 | 0 | 0
25 | O=P(O)(O)OCCC(F)(F)C(F)(F)C(F)(F)C(F)(F)C(F)(F)C(F)(F)F [6:2 Fluorotelomer phosphate monoester] (max tested concentration (log10 uM): 2) | 0 | 0 | 0 | 0 | 0 | 0 | 0 | 0 | 0
26 | O=S(=O)(O)CCC(F)(F)C(F)(F)C(F)(F)C(F)(F)C(F)(F)C(F)(F)C(F)(F)C(F)(F)F [8:2 Fluorotelomer sulfonic acid] (max tested concentration (log10 uM): 2) | 0 | 0 | 0 | 0 | 0 | 0 | 0 | 0 | 0
27 | O=C(O)C(F)(F)C(F)(F)C(F)(F)C(F)(F)C(F)(F)C(F)(F)C(F)F [8H-Perfluorooctanoic acid] (max tested concentration (log10 uM): 2) | 0 | 16.7 | 4.17 | 0 | 0 | 0 | 0 | 0 | 8.33
28 | O=C(O)C(F)(F)C(F)(F)C(F)(F)C(F)(F)C(F)(F)C(F)(F)C(F)(F)C(F)F [9H-Perfluorononanoic acid] (max tested concentration (log10 uM): 2) | 0 | 16.7 | 0 | 0 | 0 | 10.4 | 2.08 | 0 | 10.4
29 | OCC(F)(F)C(F)(F)C(F)(F)C(F)(F)C(F)(F)C(F)(F)C(F)(F)C(F)(F)C(F)(F)C(F)(F)C(F)(F)F [11:1 Fluorotelomer alcohol] (max tested concentration (log10 uM): 1.30103) | 0 | 0 | 0 | 0 | 0 | 0 | 0 | 0 | 0
30 | C=C(C)C(=O)OCCC(F)(F)C(F)(F)C(F)(F)C(F)(F)C(F)(C(F)(F)F)C(F)(F)F [(Perfluoro-5-methylhexyl)ethyl 2-methylprop-2-enoate] (max tested concentration (log10 uM): 2) | 0 | 0 | 0 | 0 | 0 | 0 | 0 | 0 | 0
